Targets include Histamine H1 receptor (Homo sapiens, UniProt P35367); Vasopressin V2 receptor (Homo sapiens, UniProt P30518); Adenosine receptor A2a (Homo sapiens, UniProt P29274).
For another assay, the target named is T1, B2 bradykinin receptor (Homo sapiens, UniProt P30411).
T1 sequence (P30411 whole entry): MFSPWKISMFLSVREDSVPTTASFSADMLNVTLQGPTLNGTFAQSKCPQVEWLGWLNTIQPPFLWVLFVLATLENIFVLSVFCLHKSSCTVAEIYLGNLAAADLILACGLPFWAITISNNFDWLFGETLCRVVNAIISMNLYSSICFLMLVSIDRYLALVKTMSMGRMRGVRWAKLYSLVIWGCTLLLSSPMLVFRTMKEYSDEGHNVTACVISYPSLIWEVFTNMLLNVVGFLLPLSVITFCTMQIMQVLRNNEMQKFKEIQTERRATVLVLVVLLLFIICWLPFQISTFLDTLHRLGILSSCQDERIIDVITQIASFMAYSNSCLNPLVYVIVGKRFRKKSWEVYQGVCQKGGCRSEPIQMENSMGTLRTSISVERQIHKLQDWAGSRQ

In assay [1] the target is Beta-2 adrenergic receptor (Homo sapiens, UniProt P07550).
Chain of Beta-2 adrenergic receptor (P07550 whole entry): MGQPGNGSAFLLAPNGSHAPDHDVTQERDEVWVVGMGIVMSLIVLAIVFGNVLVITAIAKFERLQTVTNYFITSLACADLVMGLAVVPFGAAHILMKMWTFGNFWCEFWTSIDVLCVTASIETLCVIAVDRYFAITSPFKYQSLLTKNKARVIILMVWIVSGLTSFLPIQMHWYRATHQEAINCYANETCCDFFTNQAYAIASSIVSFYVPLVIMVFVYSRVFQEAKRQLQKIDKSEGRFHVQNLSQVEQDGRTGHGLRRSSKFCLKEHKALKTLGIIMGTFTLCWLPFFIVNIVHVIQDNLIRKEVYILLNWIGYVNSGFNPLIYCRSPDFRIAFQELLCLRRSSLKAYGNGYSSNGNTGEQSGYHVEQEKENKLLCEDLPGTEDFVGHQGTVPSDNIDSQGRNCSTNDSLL
Assay [2] addresses 5-hydroxytryptamine receptor 2A (Homo sapiens, UniProt P28223). In kind it is functional, cell-based.
Assay [3] has as its target Gamma-aminobutyric acid receptor subunit alpha-1 (Rattus norvegicus, UniProt P62813).
The target in assay [4] is T2, Muscarinic acetylcholine receptor M2 (Homo sapiens, UniProt P08172).
T2 sequence (P08172 whole entry): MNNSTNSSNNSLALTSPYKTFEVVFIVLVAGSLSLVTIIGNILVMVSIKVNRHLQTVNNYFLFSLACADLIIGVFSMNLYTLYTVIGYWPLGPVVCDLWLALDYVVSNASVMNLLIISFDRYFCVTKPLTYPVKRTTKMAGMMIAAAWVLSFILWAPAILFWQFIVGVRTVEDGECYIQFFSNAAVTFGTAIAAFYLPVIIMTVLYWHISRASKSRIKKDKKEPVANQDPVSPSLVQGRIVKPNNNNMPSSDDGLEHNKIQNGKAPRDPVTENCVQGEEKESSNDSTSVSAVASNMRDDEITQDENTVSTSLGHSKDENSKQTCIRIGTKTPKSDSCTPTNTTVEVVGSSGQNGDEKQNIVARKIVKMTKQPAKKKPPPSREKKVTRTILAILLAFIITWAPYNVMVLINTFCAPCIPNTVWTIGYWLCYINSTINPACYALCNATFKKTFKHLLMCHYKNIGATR
In kind it is functional, cell-based.

Assay [5] addresses Sodium-dependent serotonin transporter (Homo sapiens, UniProt P31645).
Assay [6] concerns the target T3, Equilibrative nucleoside transporter 1 (Homo sapiens, UniProt Q99808).
T3 sequence (Q99808 whole entry): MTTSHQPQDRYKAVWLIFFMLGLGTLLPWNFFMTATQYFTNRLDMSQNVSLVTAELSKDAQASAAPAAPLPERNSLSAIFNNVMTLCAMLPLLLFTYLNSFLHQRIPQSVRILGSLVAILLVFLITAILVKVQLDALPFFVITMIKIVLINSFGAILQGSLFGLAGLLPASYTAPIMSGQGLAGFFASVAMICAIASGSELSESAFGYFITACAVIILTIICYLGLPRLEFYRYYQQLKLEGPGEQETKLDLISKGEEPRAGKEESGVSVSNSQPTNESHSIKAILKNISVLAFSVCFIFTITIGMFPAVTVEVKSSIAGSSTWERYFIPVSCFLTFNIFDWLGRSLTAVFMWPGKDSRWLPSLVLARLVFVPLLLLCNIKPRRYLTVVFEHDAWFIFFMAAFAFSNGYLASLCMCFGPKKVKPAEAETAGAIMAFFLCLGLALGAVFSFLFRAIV

The target in assay [7] is T2, Muscarinic acetylcholine receptor M2. In kind it is functional, cell-based. The source holds these as a separate data set.
The target in assay [8] is 5-hydroxytryptamine receptor 2B (Homo sapiens, UniProt P41595). In kind it is functional, cell-based.
Chain of 5-hydroxytryptamine receptor 2B (P41595 whole entry): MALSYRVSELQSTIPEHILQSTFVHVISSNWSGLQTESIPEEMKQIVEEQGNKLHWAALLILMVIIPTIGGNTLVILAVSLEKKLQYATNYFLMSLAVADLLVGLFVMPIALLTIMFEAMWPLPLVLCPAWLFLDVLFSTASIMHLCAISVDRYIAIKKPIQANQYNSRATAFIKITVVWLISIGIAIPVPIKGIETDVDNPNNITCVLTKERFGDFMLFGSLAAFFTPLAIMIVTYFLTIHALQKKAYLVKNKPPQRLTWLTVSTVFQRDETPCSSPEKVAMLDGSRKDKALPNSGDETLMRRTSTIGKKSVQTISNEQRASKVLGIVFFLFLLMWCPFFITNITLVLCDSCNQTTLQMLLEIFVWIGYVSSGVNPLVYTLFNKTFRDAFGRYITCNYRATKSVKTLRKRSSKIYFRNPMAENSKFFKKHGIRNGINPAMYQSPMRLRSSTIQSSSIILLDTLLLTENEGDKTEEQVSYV
Assay [9] addresses T4, Prostaglandin G/H synthase 1 (Rattus norvegicus, UniProt Q63921).
T4 sequence (Q63921 whole entry): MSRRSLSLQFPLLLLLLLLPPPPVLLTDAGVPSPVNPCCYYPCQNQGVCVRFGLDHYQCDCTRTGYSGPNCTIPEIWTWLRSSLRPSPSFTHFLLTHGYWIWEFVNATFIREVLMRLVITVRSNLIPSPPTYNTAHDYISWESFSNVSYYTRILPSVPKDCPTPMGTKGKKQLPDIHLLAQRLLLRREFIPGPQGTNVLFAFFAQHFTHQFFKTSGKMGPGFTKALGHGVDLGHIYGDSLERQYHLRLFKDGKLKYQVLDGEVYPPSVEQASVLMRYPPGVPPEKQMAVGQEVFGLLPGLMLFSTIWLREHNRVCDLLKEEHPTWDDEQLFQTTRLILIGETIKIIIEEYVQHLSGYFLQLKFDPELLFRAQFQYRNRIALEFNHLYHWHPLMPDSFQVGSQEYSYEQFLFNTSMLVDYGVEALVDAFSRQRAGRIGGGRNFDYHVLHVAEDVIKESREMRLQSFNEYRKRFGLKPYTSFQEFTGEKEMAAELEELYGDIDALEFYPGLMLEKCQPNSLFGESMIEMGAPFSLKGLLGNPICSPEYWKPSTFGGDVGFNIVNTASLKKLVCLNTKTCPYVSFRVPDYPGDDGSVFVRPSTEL
In kind it is functional.

The target in assay [10] is T5, Alpha-2A adrenergic receptor (Homo sapiens, UniProt P08913).
T5 sequence (P08913 whole entry): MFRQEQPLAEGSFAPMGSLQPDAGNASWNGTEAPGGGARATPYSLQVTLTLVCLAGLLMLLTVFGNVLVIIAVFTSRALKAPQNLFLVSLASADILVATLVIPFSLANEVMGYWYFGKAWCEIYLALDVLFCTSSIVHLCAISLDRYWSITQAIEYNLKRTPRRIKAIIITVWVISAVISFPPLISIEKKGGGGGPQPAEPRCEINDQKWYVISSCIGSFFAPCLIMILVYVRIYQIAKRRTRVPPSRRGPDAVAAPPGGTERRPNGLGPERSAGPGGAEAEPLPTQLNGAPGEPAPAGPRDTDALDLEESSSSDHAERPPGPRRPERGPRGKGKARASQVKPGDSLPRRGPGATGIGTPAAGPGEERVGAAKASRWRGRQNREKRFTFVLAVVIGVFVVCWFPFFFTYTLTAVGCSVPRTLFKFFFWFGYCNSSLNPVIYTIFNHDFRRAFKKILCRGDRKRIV
In kind it is functional, cell-based.

Consider nine compounds from ChEMBL document CHEMBL5291721, “A preclinical secondary pharmacology resource illuminates target-adverse drug reaction associations of marketed drugs” (Nat Commun, 2023).

Some results are limits rather than exact numbers.
Note: assay procedure not described here.

Chain of Gamma-aminobutyric acid receptor subunit alpha-1 (P62813 whole entry): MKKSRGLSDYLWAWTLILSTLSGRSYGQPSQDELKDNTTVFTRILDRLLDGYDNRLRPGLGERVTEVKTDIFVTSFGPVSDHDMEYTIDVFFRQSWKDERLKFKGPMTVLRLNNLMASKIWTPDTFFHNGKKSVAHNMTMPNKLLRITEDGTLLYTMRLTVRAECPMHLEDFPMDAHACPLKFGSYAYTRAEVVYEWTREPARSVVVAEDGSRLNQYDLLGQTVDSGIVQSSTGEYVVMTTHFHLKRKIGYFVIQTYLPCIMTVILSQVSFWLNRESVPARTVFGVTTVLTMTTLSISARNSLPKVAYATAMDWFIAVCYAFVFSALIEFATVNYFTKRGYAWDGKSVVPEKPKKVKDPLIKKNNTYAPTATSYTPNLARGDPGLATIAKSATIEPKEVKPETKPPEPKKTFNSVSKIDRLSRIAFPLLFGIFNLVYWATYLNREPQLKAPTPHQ
Chain of Vasopressin V2 receptor (P30518 whole entry): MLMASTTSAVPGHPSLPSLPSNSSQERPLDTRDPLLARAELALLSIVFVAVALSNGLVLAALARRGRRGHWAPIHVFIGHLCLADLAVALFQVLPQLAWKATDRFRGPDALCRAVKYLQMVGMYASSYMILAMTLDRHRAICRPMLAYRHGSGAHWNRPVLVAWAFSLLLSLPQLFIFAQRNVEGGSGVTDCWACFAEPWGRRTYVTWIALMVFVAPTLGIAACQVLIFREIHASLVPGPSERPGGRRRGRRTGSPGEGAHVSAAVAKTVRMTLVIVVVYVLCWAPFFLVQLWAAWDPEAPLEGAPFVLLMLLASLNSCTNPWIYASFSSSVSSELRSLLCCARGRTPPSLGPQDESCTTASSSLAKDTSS
Chain of 5-hydroxytryptamine receptor 2A (P28223 whole entry): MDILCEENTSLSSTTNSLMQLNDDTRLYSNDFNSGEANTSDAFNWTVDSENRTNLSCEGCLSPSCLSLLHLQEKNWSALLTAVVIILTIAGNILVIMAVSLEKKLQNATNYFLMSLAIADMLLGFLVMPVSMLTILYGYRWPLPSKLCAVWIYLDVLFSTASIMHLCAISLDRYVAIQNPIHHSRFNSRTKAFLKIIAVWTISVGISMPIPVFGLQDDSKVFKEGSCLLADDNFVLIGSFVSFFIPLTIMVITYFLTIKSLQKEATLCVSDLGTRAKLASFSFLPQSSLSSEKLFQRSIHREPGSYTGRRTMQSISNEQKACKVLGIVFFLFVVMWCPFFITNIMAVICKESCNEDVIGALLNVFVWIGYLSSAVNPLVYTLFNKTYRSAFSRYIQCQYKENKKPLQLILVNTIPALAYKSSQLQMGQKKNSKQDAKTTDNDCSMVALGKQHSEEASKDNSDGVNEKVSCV
Chain of Adenosine receptor A2a (P29274 whole entry): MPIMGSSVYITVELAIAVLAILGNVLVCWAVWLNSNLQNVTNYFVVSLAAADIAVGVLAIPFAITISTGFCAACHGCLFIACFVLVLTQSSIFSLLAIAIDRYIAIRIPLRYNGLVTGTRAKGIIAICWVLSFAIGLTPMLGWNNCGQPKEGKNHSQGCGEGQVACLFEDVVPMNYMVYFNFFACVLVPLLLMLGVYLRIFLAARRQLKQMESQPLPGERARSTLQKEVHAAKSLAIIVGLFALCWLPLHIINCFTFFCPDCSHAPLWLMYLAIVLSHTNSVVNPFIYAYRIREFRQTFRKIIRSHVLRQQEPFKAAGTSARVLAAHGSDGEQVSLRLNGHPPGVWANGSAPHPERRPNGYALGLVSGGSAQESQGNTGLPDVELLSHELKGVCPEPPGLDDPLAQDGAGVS
Chain of Sodium-dependent serotonin transporter (P31645 whole entry): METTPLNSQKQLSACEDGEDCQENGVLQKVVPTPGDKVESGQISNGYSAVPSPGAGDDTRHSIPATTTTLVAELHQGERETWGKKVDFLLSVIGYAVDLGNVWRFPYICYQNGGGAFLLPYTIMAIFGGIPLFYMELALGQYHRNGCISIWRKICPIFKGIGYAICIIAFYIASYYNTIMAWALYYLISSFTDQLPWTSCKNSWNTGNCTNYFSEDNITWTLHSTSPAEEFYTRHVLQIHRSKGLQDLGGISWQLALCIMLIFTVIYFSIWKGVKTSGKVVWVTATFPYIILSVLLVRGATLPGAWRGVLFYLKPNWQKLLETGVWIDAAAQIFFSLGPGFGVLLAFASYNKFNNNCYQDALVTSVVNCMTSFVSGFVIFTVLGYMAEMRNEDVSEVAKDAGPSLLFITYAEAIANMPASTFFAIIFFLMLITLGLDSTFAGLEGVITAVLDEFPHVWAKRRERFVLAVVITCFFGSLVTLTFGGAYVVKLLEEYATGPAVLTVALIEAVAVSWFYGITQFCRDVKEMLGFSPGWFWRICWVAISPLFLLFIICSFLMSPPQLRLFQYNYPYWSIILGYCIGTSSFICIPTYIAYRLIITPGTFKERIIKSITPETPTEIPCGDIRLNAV
Chain of Histamine H1 receptor (P35367 whole entry): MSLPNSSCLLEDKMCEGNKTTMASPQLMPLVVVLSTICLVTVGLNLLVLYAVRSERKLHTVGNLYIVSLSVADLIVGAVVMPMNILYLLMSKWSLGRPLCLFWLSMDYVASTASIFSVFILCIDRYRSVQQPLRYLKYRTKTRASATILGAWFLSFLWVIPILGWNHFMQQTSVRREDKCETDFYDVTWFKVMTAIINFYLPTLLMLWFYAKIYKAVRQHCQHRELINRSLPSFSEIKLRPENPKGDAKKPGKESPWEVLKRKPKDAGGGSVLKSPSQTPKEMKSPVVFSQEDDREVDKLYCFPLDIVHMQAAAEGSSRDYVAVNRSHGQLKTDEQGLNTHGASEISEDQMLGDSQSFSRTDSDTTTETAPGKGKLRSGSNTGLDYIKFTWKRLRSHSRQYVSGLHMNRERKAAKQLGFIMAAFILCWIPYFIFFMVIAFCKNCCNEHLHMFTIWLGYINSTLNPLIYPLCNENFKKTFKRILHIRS

A word on the AC50: it is the midpoint of the concentration-response curve, whichever way the signal moves. On to `CN1CC(=O)N2[C@H](c3ccc4c(c3)OCO4)c3[nH]c4ccccc4c3C[C@@H]2C1=O`, for which the AC50 is above 30 µM on B2 bradykinin receptor; above 10 µM at Histamine H1 receptor; above 10 µM in assay [1]; above 30 µM in assay [2]; above 10 µM in [3]; above 10 µM in [4]. The concentration at half-maximal activity (AC50) in assay [5] is 34.8 µM; on Vasopressin V2 receptor, above 30 µM; in assay [6] it was above 30 µM; in assay [7], above 10 µM; in assay [8], above 10 µM; in assay [9], above 30 µM. For the same compound, the values for the AC50 (at Adenosine receptor A2a; in assay [10]) were above 30 µM and above 10 µM, respectively.

As to `O=C(C[S+]([O-])C(c1ccccc1)c1ccccc1)NO` (stereo not drawn), the half-maximal activity concentration (AC50) (on B2 bradykinin receptor; on Histamine H1 receptor; in assay [1]; in assay [2]; in assay [3]; in assay [4]) was above 30 µM each time. The AC50 (in assay [5]; on Vasopressin V2 receptor; in assay [6]; in [7]; in assay [8]; in assay [9]) was above 30 µM each time. For the same compound, the half-maximal activity concentration (AC50) (on Adenosine receptor A2a; in [10]) was above 30 µM each time.

For `CC(=O)OCC(=O)[C@@]12OC3(CCCC3)O[C@@H]1C[C@H]1[C@@H]3CCC4=CC(=O)C=C[C@]4(C)[C@@]3(F)[C@@H](O)C[C@@]12C` [AMCINONIDE], the concentration at half-maximal activity (AC50) (on B2 bradykinin receptor; at Histamine H1 receptor; in assay [1]; in assay [2]; in assay [3]; in assay [4]) was above 10 µM throughout. Further, the AC50 (in assay [5]; at Vasopressin V2 receptor; in assay [6]; in [7]; in [8]; in assay [9]) was above 10 µM throughout. Further, the AC50 (at Adenosine receptor A2a; in [10]) was above 10 µM throughout.

Consider `CN1CCc2cccc3c2[C@H]1Cc1ccc(O)c(O)c1-3` [APOMORPHINE], for which the AC50 is above 30 µM at B2 bradykinin receptor; 15 µM at Histamine H1 receptor; above 10 µM in assay [1]; above 30 µM in assay [2]; above 10 µM in assay [3]; above 10 µM in assay [4]. In addition, the AC50 in assay [5] is 21.9 µM; on Vasopressin V2 receptor, above 30 µM; in [6], above 30 µM; in assay [7], above 10 µM; in [8], above 10 µM; in assay [9] it was 20.4 µM. For the same compound, the concentration at half-maximal activity (AC50) at Adenosine receptor A2a is above 30 µM; in assay [10], above 10 µM.

As for `NC(CO)C(=O)NNCc1ccc(O)c(O)c1O` (stereo not drawn) [BENSERAZIDE], the half-maximal activity concentration (AC50) was above 30 µM at B2 bradykinin receptor; above 10 µM on Histamine H1 receptor; above 10 µM in [1]; above 30 µM in [2]; above 10 µM in [3]; above 10 µM in assay [4]. Besides, the AC50 is above 30 µM in assay [5]; above 30 µM on Vasopressin V2 receptor; above 30 µM in [6]; above 10 µM in assay [7]; above 10 µM in assay [8]; above 30 µM in assay [9]. In addition, the figures for the AC50 (at Adenosine receptor A2a; in assay [10]) were above 30 µM and above 10 µM, respectively.

With `CCC(C(=O)O)c1ccc(CC(C)C)cc1` (stereo not drawn) [BUTIBUFEN], the concentration at half-maximal activity (AC50) (on B2 bradykinin receptor; on Histamine H1 receptor; in [1]; in assay [2]; in assay [3]; in assay [4]) was above 30 µM throughout. The concentration at half-maximal activity (AC50) (in [5]; on Vasopressin V2 receptor; in assay [6]; in [7]; in assay [8]; on Adenosine receptor A2a) was above 30 µM throughout. In [10], this compound showed an AC50 above 30 µM.

As for `CN(C)C(=O)OC1N=C(c2ccccc2)c2cc(Cl)ccc2N(C)C1=O` (stereo not drawn) [CAMAZEPAM], the AC50 at B2 bradykinin receptor was above 30 µM; on Histamine H1 receptor, above 10 µM; in [1], above 10 µM; in assay [2], above 30 µM; in assay [3], above 10 µM; in assay [4], above 10 µM. For the same compound, the concentration at half-maximal activity (AC50) in assay [5] was above 10 µM; at Vasopressin V2 receptor, above 30 µM; in assay [6], above 30 µM; in [7], above 10 µM; in [8], above 10 µM; in [9], above 30 µM. For the same compound, the concentration at half-maximal activity (AC50) on Adenosine receptor A2a was above 30 µM; in assay [10], above 10 µM.

`CCCCCCCCCCCC[N+](C)(C)CCOc1ccccc1` [DOMIPHEN]: the AC50 on B2 bradykinin receptor was above 30 µM; at Histamine H1 receptor, 12 µM; in assay [1] it was 15 µM; in [2], above 30 µM; in assay [3] it was above 30 µM; in [4] it was 14 µM. The AC50 is 1.7 µM in [5]; 7.3 µM on Vasopressin V2 receptor; above 30 µM in assay [6]; above 30 µM in [8]; above 30 µM in [9]; above 30 µM on Adenosine receptor A2a. The same compound showed a concentration at half-maximal activity (AC50) in assay [10] of 13 µM.

Take `CCCCCCCCOc1ccccc1C(=O)Nc1ccc(C(=O)OCC[N+](C)(CC)CC)cc1` [OTILONIUM BROMIDE]: the AC50 was above 30 µM on B2 bradykinin receptor; 19 µM at Histamine H1 receptor; 11 µM in assay [1]; above 30 µM in [2]; above 30 µM in assay [3]; 16 µM in assay [4]. Besides, the AC50 in assay [5] worked out at 0.91 µM; on Vasopressin V2 receptor it was 9.9 µM; in assay [6], 17 µM; in assay [8], 12 µM; in assay [9] it was 14 µM; on Adenosine receptor A2a it was 5.3 µM. The same compound yielded an AC50 in assay [10] above 10 µM.
